From ChEMBL document CHEMBL3124853, “Synthesis and anti-Candidal activity of N-(4-aryl/cyclohexyl)-2-(pyridine-4-yl carbonyl) hydrazinecarbothioamide” (Bioorg Med Chem Lett, 2014)
pIC50: −log10 of the molar value. ≈ marks a conversion by molar mass, not a printed value.

Assays:
[1] = system: Candida; experiment: Antifungal activity against Candida sp. clinical isolate 178 derived from high vaginal swabs by microbroth dilution method; type: functional
[2] = system: Candida; experiment: Antifungal activity against Candida sp. clinical isolate 11972 derived from high vaginal swabs by microbroth dilution method; type: functional
[3] = system: Candida tropicalis; experiment: Antifungal activity against Candida tropicalis ATCC 66029 by microbroth dilution method; type: functional
[4] = system: Candida; experiment: Antifungal activity against Candida sp. clinical isolate 12810 derived from blood by microbroth dilution method; type: functional
[5] = Cytotoxicity against human MCF10A cells after 48 hrs by WST1 assay; type: cell-based; conditions: MCF-10A
[6] = system: Candida parapsilosis; experiment: Antifungal activity against Candida parapsilosis ATCC 22019 by microbroth dilution method; type: functional; conditions: Lodderomyces parapsilosis
[7] = system: Candida; experiment: Antifungal activity against Candida sp. clinical isolate 13184 derived from high vaginal swabs by microbroth dilution method; type: functional
[8] = system: Candida; experiment: Antifungal activity against Candida sp. clinical isolate 12341 derived from urine by microbroth dilution method; type: functional; conditions: clinical isolate 12341, Urine
[9] = system: Candida albicans; experiment: Antifungal activity against Candida albicans ATCC 66027 by microbroth dilution method; type: functional
[10] = system: Candida; experiment: Antifungal activity against Candida sp. clinical isolate 300 derived from urine by microbroth dilution method; type: functional; conditions: clinical isolate 300, Urine
[11] = system: Candida; experiment: Antifungal activity against Candida sp. clinical isolate 12485 derived from urine by microbroth dilution method; type: functional; conditions: clinical isolate 12485, Urine
[12] = Cytotoxicity against human HT1080 cells after 48 hrs by MTT assay; type: cell-based; conditions: HT-1080, 48 h
[13] = system: A549; experiment: Cytotoxicity against human A549 cells after 48 hrs by MTT assay; type: cell-based; conditions: A549, 48 h
[14] = system: HepG2; experiment: Cytotoxicity against human HepG2 cells after 48 hrs by MTT assay; type: cell-based; conditions: HepG2, 48 h

SMILES	MIC [1]	MIC [2]	MIC [3]	MIC [4]	MIC [6]	MIC [7]	MIC [8]	MIC [9]	MIC [10]	MIC [11]	pIC50 [5]	IC50 [12]	IC50 [13]	IC50 [14]
Cc1cccc(C)c1NC(=S)NNC(=O)c1ccncc1	6.25 µg/mL (≈ 20.8 µM)	12.5 µg/mL (≈ 41.6 µM)	0.78 µg/mL (≈ 2.6 µM)	1.6 µg/mL (≈ 5.33 µM)	0.78 µg/mL (≈ 2.6 µM)	6.25 µg/mL (≈ 20.8 µM)	6.25 µg/mL (≈ 20.8 µM)	0.78 µg/mL (≈ 2.6 µM)	0.78 µg/mL (≈ 2.6 µM)	6.25 µg/mL (≈ 20.8 µM)	< 3.52	–	–	–
CC(=O)Nc1ccc(NC(=S)NNC(=O)c2ccncc2)cc1	0.19 µg/mL (≈ 0.577 µM)	0.78 µg/mL (≈ 2.37 µM)	0.19 µg/mL (≈ 0.577 µM)	1.6 µg/mL (≈ 4.86 µM)	0.19 µg/mL (≈ 0.577 µM)	1.6 µg/mL (≈ 4.86 µM)	1.6 µg/mL (≈ 4.86 µM)	0.39 µg/mL (≈ 1.18 µM)	1.6 µg/mL (≈ 4.86 µM)	1.6 µg/mL (≈ 4.86 µM)	< 3.52	–	–	–
O=C(NNC(=S)Nc1ccccc1)c1ccncc1	6.25 µg/mL (≈ 22.9 µM)	6.25 µg/mL (≈ 22.9 µM)	1.6 µg/mL (≈ 5.88 µM)	0.78 µg/mL (≈ 2.86 µM)	0.39 µg/mL (≈ 1.43 µM)	12.5 µg/mL (≈ 45.9 µM)	1.6 µg/mL (≈ 5.88 µM)	0.19 µg/mL (≈ 0.698 µM)	0.19 µg/mL (≈ 0.698 µM)	1.6 µg/mL (≈ 5.88 µM)	< 3.52	684 µg/mL (≈ 2510 µM)	2040 µg/mL (≈ 7500 µM)	716 µg/mL (≈ 2630 µM)
O=C(NNC(=S)Nc1ccc([N+](=O)[O-])cc1)c1ccncc1	> 50 µg/mL	> 50 µg/mL	> 50 µg/mL	> 50 µg/mL	> 50 µg/mL	> 50 µg/mL	> 50 µg/mL	> 50 µg/mL	> 50 µg/mL	> 50 µg/mL	< 3.52	–	–	–
O=C(NNC(=S)Nc1cccc(Cl)c1)c1ccncc1	6.25 µg/mL (≈ 20.4 µM)	0.39 µg/mL (≈ 1.27 µM)	1.6 µg/mL (≈ 5.22 µM)	0.09 µg/mL (≈ 0.293 µM)	0.78 µg/mL (≈ 2.54 µM)	6.25 µg/mL (≈ 20.4 µM)	0.78 µg/mL (≈ 2.54 µM)	0.19 µg/mL (≈ 0.619 µM)	0.78 µg/mL (≈ 2.54 µM)	6.25 µg/mL (≈ 20.4 µM)	< 3.52	–	–	–
O=C(NNC(=S)Nc1ccccc1[N+](=O)[O-])c1ccncc1	0.39 µg/mL (≈ 1.23 µM)	6.25 µg/mL (≈ 19.7 µM)	0.19 µg/mL (≈ 0.599 µM)	0.39 µg/mL (≈ 1.23 µM)	6.25 µg/mL (≈ 19.7 µM)	0.78 µg/mL (≈ 2.46 µM)	6.25 µg/mL (≈ 19.7 µM)	1.6 µg/mL (≈ 5.04 µM)	1.6 µg/mL (≈ 5.04 µM)	0.39 µg/mL (≈ 1.23 µM)	< 3.52	833 µg/mL (≈ 2630 µM)	813 µg/mL (≈ 2560 µM)	410 µg/mL (≈ 1290 µM)
COc1ccc(NC(=S)NNC(=O)c2ccncc2)cc1	> 50 µg/mL	> 50 µg/mL	> 50 µg/mL	> 50 µg/mL	> 50 µg/mL	> 50 µg/mL	> 50 µg/mL	> 50 µg/mL	> 50 µg/mL	> 50 µg/mL	4.32	–	–	–
O=C(NNC(=S)Nc1ccc(Cl)cc1)c1ccncc1	0.19 µg/mL (≈ 0.619 µM)	0.19 µg/mL (≈ 0.619 µM)	0.19 µg/mL (≈ 0.619 µM)	0.09 µg/mL (≈ 0.293 µM)	0.19 µg/mL (≈ 0.619 µM)	0.78 µg/mL (≈ 2.54 µM)	0.19 µg/mL (≈ 0.619 µM)	0.09 µg/mL (≈ 0.293 µM)	0.39 µg/mL (≈ 1.27 µM)	0.39 µg/mL (≈ 1.27 µM)	< 3.52	540 µg/mL (≈ 1760 µM)	410 µg/mL (≈ 1340 µM)	1200 µg/mL (≈ 3910 µM)
O=C(O)c1cn(C2CC2)c2cc(N3CCNCC3)c(F)cc2c1=O [CIPROFLOXACIN]	–	–	–	–	–	–	–	–	–	–	< 3.52	–	–	–
O=C(NNC(=S)NC1CCCCC1)c1ccncc1	> 50 µg/mL	> 50 µg/mL	> 50 µg/mL	> 50 µg/mL	> 50 µg/mL	> 50 µg/mL	> 50 µg/mL	> 50 µg/mL	> 50 µg/mL	> 50 µg/mL	< 3.52	–	–	–

Now from value to molecule, other results behind:

MIC [1]	MIC [2]	MIC [3]	MIC [4]	MIC [6]	MIC [7]	MIC [8]	MIC [9]	MIC [10]	MIC [11]	SMILES	pIC50 [5]	IC50 [12]	IC50 [13]	IC50 [14]
0.19 µg/mL (≈ 0.269 µM)	0.02 µg/mL (≈ 0.0283 µM)	0.19 µg/mL (≈ 0.269 µM)	0.25 µg/mL (≈ 0.354 µM)	0.04 µg/mL (≈ 0.0567 µM)	0.39 µg/mL (≈ 0.553 µM)	0.09 µg/mL (≈ 0.128 µM)	1.56 µg/mL (≈ 2.21 µM)	0.09 µg/mL (≈ 0.128 µM)	0.04 µg/mL (≈ 0.0567 µM)	CCC(C)n1ncn(-c2ccc(N3CCN(c4ccc(OCC5COC(Cn6cncn6)(c6ccc(Cl)cc6Cl)O5)cc4)CC3)cc2)c1=O (configuration not stated) [ITRACONAZOLE]	< 3.52	202 µg/mL (≈ 286 µM)	182 µg/mL (≈ 258 µM)	142 µg/mL (≈ 201 µM)
> 50 µg/mL	> 50 µg/mL	> 50 µg/mL	> 50 µg/mL	> 50 µg/mL	> 50 µg/mL	> 50 µg/mL	> 50 µg/mL	> 50 µg/mL	> 50 µg/mL	Cc1ccccc1N=C(S)NNC(=O)c1ccncc1	< 3.52	–	–	–
> 50 µg/mL	> 50 µg/mL	> 50 µg/mL	> 50 µg/mL	> 50 µg/mL	> 50 µg/mL	> 50 µg/mL	> 50 µg/mL	> 50 µg/mL	> 50 µg/mL	Cc1ccc(NC(=S)NNC(=O)c2ccncc2)cc1	3.64	–	–	–
> 50 µg/mL	> 50 µg/mL	> 50 µg/mL	> 50 µg/mL	> 50 µg/mL	> 50 µg/mL	> 50 µg/mL	> 50 µg/mL	> 50 µg/mL	> 50 µg/mL	CCOc1ccc(NC(=S)NNC(=O)c2ccncc2)cc1	< 3.52	–	–	–
> 50 µg/mL	> 50 µg/mL	> 50 µg/mL	> 50 µg/mL	> 50 µg/mL	> 50 µg/mL	> 50 µg/mL	> 50 µg/mL	> 50 µg/mL	> 50 µg/mL	COc1cccc(NC(=S)NNC(=O)c2ccncc2)c1	< 3.52	–	–	–
> 50 µg/mL	> 50 µg/mL	> 50 µg/mL	> 50 µg/mL	> 50 µg/mL	> 50 µg/mL	> 50 µg/mL	> 50 µg/mL	> 50 µg/mL	> 50 µg/mL	CCc1cccc(NC(=S)NNC(=O)c2ccncc2)c1	< 3.52	–	–	–
> 50 µg/mL	> 50 µg/mL	> 50 µg/mL	> 50 µg/mL	> 50 µg/mL	> 50 µg/mL	> 50 µg/mL	> 50 µg/mL	> 50 µg/mL	> 50 µg/mL	O=C(NNC(=S)Nc1ccc(S(=O)(=O)Nc2ncccn2)cc1)c1ccncc1	< 3.52	–	–	–
> 50 µg/mL	> 50 µg/mL	> 50 µg/mL	> 50 µg/mL	> 50 µg/mL	> 50 µg/mL	> 50 µg/mL	> 50 µg/mL	> 50 µg/mL	> 50 µg/mL	Cc1cccc(NC(=S)NNC(=O)c2ccncc2)c1	< 3.52	–	–	–
> 50 µg/mL	> 50 µg/mL	> 50 µg/mL	> 50 µg/mL	> 50 µg/mL	> 50 µg/mL	> 50 µg/mL	> 50 µg/mL	> 50 µg/mL	> 50 µg/mL	COc1ccccc1N=C(S)NNC(=O)c1ccncc1	< 3.52	–	–	–
0.09 µg/mL (≈ 0.226 µM)	0.19 µg/mL (≈ 0.477 µM)	0.19 µg/mL (≈ 0.477 µM)	0.39 µg/mL (≈ 0.979 µM)	0.19 µg/mL (≈ 0.477 µM)	1.6 µg/mL (≈ 4.02 µM)	0.19 µg/mL (≈ 0.477 µM)	0.39 µg/mL (≈ 0.979 µM)	1.6 µg/mL (≈ 4.02 µM)	0.78 µg/mL (≈ 1.96 µM)	O=C(NNC(=S)Nc1ccc(I)cc1)c1ccncc1	< 3.52	–	–	–
